row,melting point [°C],Structure (SMILES)
1,218 to 220,C=Cc1cncc(-c2cc(NC(=O)Cc3ccc4ccccc4c3)n[nH]2)c1
2,96 to 100,Cn1c(CCOc2ccc(CC3SC(=O)NC3=O)cc2)nc2cccnc21 (stereo not given)
3,157 to 158,O=C(CCN1CCN(c2cccc(Cl)c2Cl)CC1)N1CCc2ccccc21
4,158 to 159,CC1(C)OC(=O)Nc2ccc(-c3cccc(Cl)c3)cc21
5,42 to 47,O=C(CNc1ccc2[nH]ncc2c1)N1CCC(Cc2ccccc2)CC1
6,180 to 183,CC(N)C(=O)NC(Cc1ccccc1)C(=O)NCC(=O)Oc1c(Cl)c(Cl)c(Cl)c(Cl)c1Cl (stereo not given)
7,132 to 138,O=C(O)c1ccccc1-n1nc(-c2ccccc2O)nc1-c1ccccc1O
8,66,O=C1C=CC(O)(c2nc3ccccc3s2)C(Sc2ccccc2)C1 (stereo not given)
9,245 to 246,CC(=O)NC1CCc2c([nH]c3cc(O)ccc23)C1 (stereo not given)
10,165 to 166,CC(C)c1cccc(C(C)C)c1NC(=O)N(Cc1ccc(N(C)C)cc1)c1ccc(Br)cc1
11,148,Cc1cc(-n2ccnc2)c2cccc(OCc3c(Cl)ccc(S(=O)(=O)N4CCC[C@H]4C(=O)NCCCNC(=O)c4ccc(C=NN)cc4)c3Cl)c2n1
12,75.5 to 77,CCOC(=O)C(CC(=O)c1ccc(Oc2ccc(Cl)cc2)cc1)SC(C)=O (stereo not given)
13,139,Clc1cccc2c3c([nH]c12)-c1ccccc1C3

# Second part, the molecule before the results:
row,Structure (SMILES),melting point [°C]
1,N#CC=Cc1ccc([N+](=O)[O-])cc1,112
2,Cn1nnnc1SCC1=C(C(=O)O)N2C(=O)C(NC(=O)Cn3ccnc3S(C)(=O)=O)C2SC1 (stereo not given),230
3,NCC1Cc2cc(C(F)(F)F)cc(-c3cccc(Cl)c3Cl)c2O1 (stereo not given),152 to 155
4,CCOC(=O)C(CC(=O)c1cccc(F)c1)(NC(C)=O)C(=O)OCC,121 to 123
5,CCOC(=O)C1=C(C)N2CCCC2=C(C(C)=O)C1c1ccccc1C#N (stereo not given),167
6,CC(C)n1nc(-c2sc(NC(=O)OC(C)(C)C)nc2-c2ccccc2)ccc1=O,198 to 199
7,Cc1c(Cl)cc(C#N)n1CCC(C)NC(=O)C(C#N)C(C)C(C)(C)C (stereo not given),111 to 118
8,COC(=O)/C(C#N)=C/c1ccccc1,90 to 91
9,CC(C)(C)OCC(O)CN (stereo not given),41 to 43
10,Nc1sc2c(c1C(=O)c1cccc(C(F)(F)F)c1)CCN(CCCc1ccccc1)C2,176 to 178
11,O=C(O)[C@H]1CCCN1C(=O)CCS,68 to 70
12,CCCc1c(OCCCOc2ccc(C(=O)CCC(=O)O)c(Cl)c2Cl)ccc(C(C)=O)c1O,119 to 123
13,CON=C1SC(C)(c2ccccc2)C(=O)N1Nc1ccccc1 (stereo not given),133 to 134
14,COC1(c2ccc(Sc3ccc4c(c3)CCC(=S)N4C)s2)CCOCC1,100 to 102
15,CC(C(=O)c1ccco1)N1CCN(c2ccc(CO)c(Cl)c2)CC1 (stereo not given),95 to 98
16,O=C(Cl)c1ccc(C#Cc2ccccc2C(=O)Cl)cc1,79 to 85
17,O=C(NCCC12CC3CC(CC(C3)C1)C2)c1cc(-c2cccnc2C(=O)O)ccc1Cl,108 to 111
18,CC(=O)c1ccc2c(c1)N(C(=O)OC(C)(C)C)CCC2,125 to 127
19,CCCCNc1ccc(-c2c(N)nc(N)nc2CC)cc1[N+](=O)[O-],252 to 254
20,O=C1NCCC1Cc1ccc(Cl)nc1 (stereo not given),117 to 118
21,Clc1ccc(-c2nnc(CSCCOc3ccccc3)o2)cn1,113 to 115
22,CCCCc1cc2c(=O)n3cc(C(=O)OC)ccc3nc2s1,137 to 138
23,COC(=O)CN1CCC[C@H]1C(=O)N[C@@H](Cc1ccccc1)C(=O)N1CCC[C@H]1C(=O)O,145 to 148
24,Nc1ccc(C(=O)c2ccncc2)cc1[N+](=O)[O-],294 to 295
25,CC1(C)C(C(=O)O)C1C(Br)C(Br)(Br)Br (stereo not given),150
26,COc1cc(O)ccc1CCCc1ccc(O)c(CC=C(C)C)c1,85 to 86
27,O=C(O)CCCC/C=C(/c1ccc(-c2nc(C(=O)NCCCCC3CCCCC3)co2)cc1)c1cccnc1,52 to 56
